Results taken from patent US11071790B2, “Method for efficient delivery of therapeutic molecules in vitro and in vivo” (Massachusetts Eye and Ear Infirmary, priority 2014, dated 2021).
No end group written: not given here.

What was measured:
[1] = test system: cochlear hair cells and supporting cells of Rosa-tdTomato f/f mouse; experiment: Cre delivery into Rosa-tdTomato mouse cochlea in vivo (tdT labeling); details: for tdT-labeled hair cells: near the injection site (base turn of cochlea)
Procedure: FIGS. 10A and 10B show the in vivo delivery of Cre recombinase to hair cells in the mouse inner ear. FIG. 10A: The scala media (cochlear duct) of P0 floxP-tdTomato mice (n=4) were injected with 0.3 μL of 23 μM (−30)GFP-Cre in 50% RNAiMAX or with RNAiMAX alone (control). […] Red=tdTomato; green=Myo7a; white=Sox2; blue=DAPI. Yellow brackets indicate the outer hair cell (OHC) region. […] Red=tdTomato; green=Esp, white=Sox2; blue=DAPI, Scale bars: 10 μm.
FIGS. 11A-11E show the high efficiency of protein delivery mediated by aurein in the inner ear in vivo. […] FIG. 11E: In Opti-MEM injected control mice no tdT labeling was detected in any inner ear cells. Scale bars: 10 μm.
The use of (−30)-GFP protein and a new positively charged (+36)-GFP protein to carry Cre, (−30)-GFP-Cre and (+36)-GFP-Cre, was tested for injection into mouse cochlea in vivo. The mouse used was Rosa-tdTomato^f/f in which functional Cre activity in the nuclei results in cells being labeled with tdT (red). It was shown that both (−30)-GFP-Cre and (+36)-GFP-Cre injections led to tdT expression in the cochlear hair cells.
It was next tested whether Aurein, an antimicrobial peptide, in combination with s-GFP, can serve as an effective carrier to deliver functional proteins into mouse inner ear cell types with high efficiency. (+36)-GFP-aurein-Cre was injected with different concentrations into P3 Rosa-tdT mouse inner ear by cochleostomy in vivo. The tissues were harvested 5 days later for immunolabeling to identify tdT^+ inner ear cell types. […] At 22.5 μM, 58% of OHC and 75% of IHC, as well as 8% of SC were tdT^+. At the highest 50 μM, 96% of OHC, 88% of IHC and 19% of SC were tdT^+. Some spiral ganglion neurons were also tdT^+ at 22.5 and 50 μM (FIGS. 11A-11E and FIG. 12).

BSR.LNL.tdTomato cells [2] = experiment: ATP-dependent cell viability assay (CELLTITER-GLO); details: 1 μM, 48 h after treatment
Procedure: (§1) FIGS. 15A, 15B are graphs showing the efficacy and toxicity of recombinant expression fusions of aurein 1.2 (“E”) and citropin 1.3 (“U”). […] The percentage of tdTomato positive cells was determined by flow cytometry. Protein fusions were delivered at 125 nM, 250 nM, 500 nM, and 1 μM. […] Protein fusions were delivered at 125 nM, 250 nM, 500 nM, and 1 μM. […] Cells were treated with 250 nM protein for 4 h in serum-free media. Cells were washed and supplanted with full DMEM and incubated for 48 h. Error bars represent the standard deviation of three independent biological replicates.
(§2) Uptake and delivery assays for Cre fusion proteins were performed as previously described (Cronican, J. J.; et al. ACS Chemical Biology 2010, 5, 747). Briefly, proteins were diluted in serum-free DMEM and incubated on the cells in 48-well plates for 4 h at 37° C. Following incubation, the cells were washed three times with PBS+20 U/mL heparin. The cells were incubated a further 48 h in serum-containing media prior to trypsinization and analysis by flow cytometry. […] Toxicity for alanine scan mutational analysis was determined with LIVE/DEAD fixable far-red dead cell stain (Life Technologies) with 635 nm laser and 670/30 nm filter.
Next, the toxicity of each fusion protein was evaluated at a range of concentrations (125 nM to 1 μM) using an ATP-dependent cell viability assay at 48 h after treatment.

[3] = test system: cochlear hair cells of Rosa26-tdTomato mice; experiment: in vivo delivery of Cre recombinase into mouse neonatal cochlea (tdTomato recombination)
Procedure: 0.4 μL of 50 μM+36 GFP-Cre or aurein 1.2-+36 GFP-Cre were injected into the scala media. […] Inner hair cells (IHC), outer hair cells (OHC) and supporting cells in the sensory epithelium (SE) were imaged for the presence of tdTomato, which is only expressed following Cre-mediated recombination. Hair cells were labeled with antibodies against the hair-cell marker Myo7a.
P1-2 Gt(ROSA)26Sor^tm14(CAG-tdTomato)Hze mice were used for aurein 1.2-+36-GFP-Cre and +36-GFP-Cre injection. The Rosa26-tdTomato mice were from the Jackson Laboratory. […] Mice were anesthetized by hypothermia on ice. Cochleostomies were performed by making an incision behind the ear to expose the cochlea. Glass micropipettes held by a micromanipulator were used to deliver the complex into the scala media, which allows access to inner ear hair cells. […]
To quantify the number of tdTomato positive cells after aurein 1.2-+36-GFP-Cre and +36-GFP-Cre, we counted the total number of inner and outer hair cells in a region spanning 100 μm in the apex, middle, and base turn of the cochlea.
Anesthetized postnatal day 2 (P2) mice were injected with 0.4 μL of 50 μM+36 GFP-Cre or aurein 1.2-+36 GFP-Cre solutions in the scala media to access the cochlear cells. […] Both the hair cells (Myo7a+) and supporting cells (Myo7a−) were evaluated for td Tomato signal.

BSR.LNL.tdTomato cells [4] = experiment: primary screen for cytosolic delivery of Cre recombinase (fluorescence image analysis); format: cell-based, hamster
Procedure: Initial screen of 20 peptide-(+36 GFP)-Cre conjugated proteins. Cytosolic Cre delivery results in recombination and tdTomato expression. The percentage of tdTomato positive cells was determined by fluorescence image analysis. […] Cells were washed and supplanted with full DMEM and incubated for 48 h. Error bars represent the standard deviation of three independent biological replicates.
BSR.LNL.tdTomato cells were plated at 10,000 cells per well in black 384-well plates (Aurora Biotechnologies). […] Following incubation, the cells were washed three times with PBS+20 U/mL heparin. The cells were incubated a further 48 h in serum-containing media. Cells were fixed in 3% paraformaldehyde and stained with Hoescht 33342 nuclear dye. Images were acquired on an ImageXpress Micro automated microscope (Molecular Devices) using a 4× objective (binning 2, gain 2), with laser- and image-based focusing (offset −130 μm, range ±50 μm, step 25 μm). Images were exposed for 10 ms in the DAPI channel (Hoechst) and 500 ms in the dsRed channel (tdTomato). Image analysis was performed using the cell-scoring module of MetaXpress software (Molecular Devices). All nuclei were detected with a minimum width of 1 pixel, maximum width of 3 pixels, and an intensity of 200 gray levels above background. […] In total, nine images were captured and analyzed per well, and 16 wells were treated with the same fusion protein. The primary screen was completed in biological triplicate.
Because Cre recombinase must enter the cell, escape endosomes, enter the nucleus, and catalyze recombination to generate tdTomato fluorescence, this assay reflects the availability of active, non-endosomal recombinase enzyme that reaches the nucleus.
The reporter BSR.LNL.tdTomato cells were incubated with 250 nM of each peptide-(+36 GFP)-Cre protein in serum-free media.

[5] = test system: glucocorticoid receptor (GR-mCherry) in HeLa cells; experiment: GR-mCherry translocation assay; format: cell-based; details: 1 μM, 30 min
Procedure: One day prior to transfection 10,000 HeLa cells in 200 μL of DMEM (10% FBS, 1× Pen-Strep) were plated into single wells of a 96-well MATRICAL glass bottom microplate (MGB096-1-2-LG-L) and allowed to adhere overnight. The following day, cells were transfected with GRmCherry using LIPOFECTAMINE® 2000 technologies. Following transfection, cells were allowed to recover overnight in DMEM (+10% FBS). The following day, cells were treated with dexamethasone (Dex) or 1 μM Dex-protein conjugate in the presence or absence of inhibitor diluted into DMEM (without phenol red, +300 nM Hoescht33342). After 30 min, cells were washed twice with 200 μL of HEPES-Krebs-Ringer's (HKR) buffer (140 mM NaCl, 2 mM KCl, 1 mM CaCl2, 1 mM MgCl2, and 10 mM HEPES at pH 7.4), after which 100 μL of HKR buffer was overlaid onto the cells and images were acquired on a Zeiss Axiovert 200M epifluorescence microscope outfitted with Ziess AxiocammRM camera and an EXFO-Excite series 120 Hg arc lamp. The translocation ratio (the ratio of median […] intensity in the nuclear and surrounding regions) for individual cells was measured using CELLPROFILER® as described 36. […]
Although endosomal escape is widely considered to be the major bottleneck of cationic protein delivery (Sahay, G.; et al. Nature Biotechnology 2013, 31, 653), few assays quantify the ability of proteins to escape endosomes on a single-cell basis.

BSR.LNL.tdTomato cells [6] = experiment: Cre delivery assay of recombinant fusion proteins (flow cytometry); format: cell-based, hamster; details: 250 nM, fused to +36 GFP-Cre
Procedure: as §1
The percentage of tdTomato positive cells was determined by flow cytometry. […] Cells were washed and supplanted with full DMEM and incubated for 48 h.
as §2

(−30)-GFP-Cre: negatively supercharged GFP fused to Cre recombinase, SEQ ID NO: 4
tdT-labeled hair cells [1]: ~30%
stereocilia of tdTomato-positive outer hair cells ([1]; ten days after delivery, 23 μM in 50% RNAiMAX): intact espin (Esp)-expressing stereocilia of tdTomato-positive outer hair cells were present

+36 GFP-Cre: superpositively charged GFP fused to Cre recombinase, SEQ ID NO: 1
viable cells (BSR.LNL.tdTomato cells [2]): 85%
Cre-mediated recombination in inner hair cells (IHC) ([3]; apex, 50 μM): 4.4%
tdT labeling of cochlear cells ([1]; 50 μM): very few IHC and HC were labeled with tdT
tdT-labeled hair cells [1]: ~30%
recombined cells (BSR.LNL.tdTomato cells [4]; 250 nM protein with 100 μM chloroquine (positive control)): 48%
cells expressing tdTomato (recombined cells) (BSR.LNL.tdTomato cells [4]; 250 nM protein, 4 h serum-free, 48 h): 4.5%

Arg8^Dex: dexamethasone-labeled canonical cell permeable peptide Arg8, SEQ ID NO: 102 (RRRRRRRR; also: dexamethasone label, site not given here)
nuclear-to-cytoplasm translocation ratio (TR) [5]: 1.63

GLFDIIKKIAEAF [S12A]
overall recombination efficiency of aurein 1.2 variants (BSR.LNL.tdTomato cells [6]): potentially improved overall recombination efficiency

GLFDIIKKIAESF (listed as Litoria aurea) [aurein 1.2]
potency of Cre delivery into cochlear hair cells when fused with aurein 1.2 versus absence of the peptide ([3]; live mice): > 20 fold

GLFDIIKKVASVIGGL [citropin 1.3]
level of recombination in the primary screen (BSR.LNL.tdTomato cells [4]; 250 nM sortase conjugate of +36 GFP-Cre): moderate level of recombination

GLFDIIKRIAESF [K8R]
overall recombination efficiency of aurein 1.2 variants (BSR.LNL.tdTomato cells [6]): potentially improved overall recombination efficiency
